Measured values taken from patent US7141590B2, “Pharmaceutical uses and synthesis of nicotinanilide-N-oxides” (UCB SA, priority 2000, dated 2006).
Several values for one entry are separate records, joined by “and”; a condition that tells them apart may be missing. Identical values can stand only once.

T1: human CXCR1 (IL8RA) chemokine receptor (Homo sapiens, UniProt P25024)
T1 construct: host or cells: CHO cells
T1 sequence (P25024 1-350): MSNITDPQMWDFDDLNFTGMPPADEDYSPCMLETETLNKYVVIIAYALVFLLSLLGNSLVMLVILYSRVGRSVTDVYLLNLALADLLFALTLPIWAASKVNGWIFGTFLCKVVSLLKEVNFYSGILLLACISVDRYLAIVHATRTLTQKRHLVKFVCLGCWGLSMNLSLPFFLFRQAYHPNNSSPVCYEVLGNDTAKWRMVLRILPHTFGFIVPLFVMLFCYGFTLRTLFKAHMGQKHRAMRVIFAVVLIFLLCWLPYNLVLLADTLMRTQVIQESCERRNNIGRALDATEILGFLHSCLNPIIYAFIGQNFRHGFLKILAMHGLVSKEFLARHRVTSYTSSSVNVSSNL

T2: human CXCR2 (IL8RB) chemokine receptor (Homo sapiens, UniProt P25025)
T2 construct: host or cells: CHO cells
T2 sequence (P25025 1-360): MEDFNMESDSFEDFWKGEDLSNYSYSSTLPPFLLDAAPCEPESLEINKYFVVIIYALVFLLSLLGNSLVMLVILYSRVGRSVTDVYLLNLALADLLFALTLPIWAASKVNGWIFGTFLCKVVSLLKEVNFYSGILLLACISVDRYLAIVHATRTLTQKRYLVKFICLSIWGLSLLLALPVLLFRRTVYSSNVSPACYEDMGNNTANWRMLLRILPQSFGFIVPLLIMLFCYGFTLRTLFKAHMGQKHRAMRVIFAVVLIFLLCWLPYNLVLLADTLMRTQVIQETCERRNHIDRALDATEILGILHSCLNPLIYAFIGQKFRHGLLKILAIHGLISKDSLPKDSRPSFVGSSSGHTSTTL

T3: human neuropeptide Y1 (NPY1) receptors (Homo sapiens, UniProt P25929)
T3 construct: host or cells: SK-N-MC (human neuroblastoma) cells
T3 sequence (P25929 1-384): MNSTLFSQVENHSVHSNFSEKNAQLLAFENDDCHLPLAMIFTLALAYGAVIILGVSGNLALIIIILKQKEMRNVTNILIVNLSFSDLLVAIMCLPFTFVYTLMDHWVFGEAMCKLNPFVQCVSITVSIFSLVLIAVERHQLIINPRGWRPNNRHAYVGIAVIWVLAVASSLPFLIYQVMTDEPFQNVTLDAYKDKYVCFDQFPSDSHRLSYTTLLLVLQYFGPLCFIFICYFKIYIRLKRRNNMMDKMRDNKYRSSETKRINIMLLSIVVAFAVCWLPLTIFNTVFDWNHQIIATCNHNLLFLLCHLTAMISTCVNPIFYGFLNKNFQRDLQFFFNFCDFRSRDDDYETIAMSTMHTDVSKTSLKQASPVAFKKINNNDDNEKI

B1: NAP-2: Neutrophil Activating Peptide-2 (protein, UniProt P02775 59-128, looked up)
Neutrophil-activating peptide …: AELRCMCIKTTSGIHPKNIQSLEVIGKGTHCNQVEVIATLKDGRKICLDPDAPRIKKIVQKKLAGDESAD
modifications: Neutrophil-activating peptide 2

Key:
[1] = target: T1, human CXCR1 (IL8RA) chemokine receptor; experiment: CXCR1 assay ([125I]Interleukin-8 binding); details: screened at 10 μM; Panlabs; read-out: CXCR1 specific binding (%)
Experimental: This assay measures binding of [^125I]Interleukin-8 to human interleukin-CXCR1 (ILR8A) receptors. See Ahuja, S. K. and Murphy, P. M. J. Biol. Chem. 271:20545–20550, 1996 for details. In brief, CHO cells stably transfected with a plasmid encoding the human CXCR1 (IL8RA) chemokine receptor were used to prepare membranes in modified HEPES pH 7.4 buffer using standard techniques. A 5 μg aliquot of membrane was incubated with 8 pM [^125I]Interleukin-8 for 60 minutes at room temperature. Non-specific binding was estimated in the presence of 10 nM interleukin-8. Membranes were filtered and washed 3 times and the filters were counted to determine [^125I]Interleukin-8 specifically bound. Compounds were screened at 10 μM, with the data reported in Table 6 (row titled “CXCR1”) in terms of specific binding (%).

[2] = target: T2, human CXCR2 (IL8RB) chemokine receptor; experiment: Panlabs CXCR2 filtermat binding assay ([125I]Interleukin-8); details: 1 h, screened at 10 μM, read-out: CXCR2 specific binding (%)
Experimental: Selected compounds were screened by Panlabs (Bothell Wash.) using their CXCR2 filtermat binding assay. This assay measures binding of [^125I]Interleukin-8 to human interleukin-CXCR2 (IL8RB) receptors and is also described in Ahuja, S. K. and Murphy, P. M., J. Biol. Chem. 271:20545–20550, 1996. In summary, CHO cells stably transfected with a plasmid encoding the human CXCR2 (IL8RB) chemokine receptor were used to prepare membranes in modified HEPES pH 7.4 buffer. A 2 μg aliquot of membrane was incubated with 15 pM [^125I]Interleukin-8 for 60 minutes at room temperature. Non-specific binding was estimated in the presence of 10 nM interleukin-8. Membranes were filtered and washed 3 times and the filters were counted to determine [^125I]Interleukin-8 specifically bound. Compounds were screened at 10 μM and results are reported in terms of Specific Binding (%) in Tables 3–5.
This assay measures binding of [^125I]Interleukin-8 to human interleukin-CXCR2 (IL8RB) receptors. See Ahuja, S. K. and Murphy, P. M., J. Biol. Chem. 271: 20545–20550, 1996, for details. In brief, CHO cells stably transfected with a plasmid encoding the human CXCR2 (IL8RB) chemokine receptor were used to prepare membranes in modified HEPES pH 7.4 buffer using standard techniques. A 2 μg aliquot of membrane was incubated with 15 pM [^125I]Interleukin-8 for 60 minutes at room temperature. Non-specific binding was estimated in the presence of 10 nM interleukin-8. Membranes were filtered and washed 3 times and the filters were counted to determine [^125I]Interleukin-8 specifically bound. Compounds were screened at 10 μM, with the results reported in Table 6 (row titled “CXCR2”) in terms of specific binding (%).

somatostatin receptors = experiment: Somatostatin assay ([125I]tyr1 Somatostatin binding, AtT-20 membranes); design: species or system mouse; details: screened at 10 μM; Panlabs
Experimental: This assay measures binding of [^125I]tyr^1 Somatostatin to somatostatin receptors. See Thermos, K. and Reisine, T. Mol. Pharmacol. 33:370–377, 1988, and Srikant, C. B. and Heisler, S., Endocrinology 117:271–278, 1985. In brief, AtT-20 (mouse pituitary) cells were used to prepare membranes in modified Tris-HCl pH 7.5 buffer using standard techniques. A 200 μg aliquot of membrane was incubated with 0.04 nM [^125I]tyr^1 Somatostatin for 60 minutes at 25° C. Non-specific binding was estimated in the presence of 1 μM somatostatin-14. Membranes were filtered and washed 3 times and the filters were counted to determine [^125I]tyr^1 Somatostatin specifically bound. Compounds were screened at 10 μM, with the data reported in Table 6 (row titled “Somat.”) in terms of specific binding (%).

[3] = target: T3, human neuropeptide Y1 (NPY1) receptors; experiment: NPY1 assay ([125I]Peptide YY binding, SK-N-MC cells); details: screened at 10 μM; Panlabs
Experimental: This assay measures binding of [^125I]Peptide YY (PYY) to human neuropeptide Y1 (NPY1) receptors. See Fuhlendorff, J., et al. Proc. Natl Acad. Sci. USA 87:182–186, 1990 and Sheikh, S. P., et al. J. Biol. Chem. 264: 6648–6654, 1989. In brief, SK-N-MC (human neuroblastoma) cells were used in modified HBSS pH 7.4 buffer using standard techniques. The cells (10^6) were incubated with 12.5 pM [^125I]PYY for 45 minutes at 25° C. […] Cells were centrifuged and pellets were counted to determine [^125I]PYY specifically bound. Compounds were screened at 10 μM, with the results shown in Table 6 (row titled “NPY1”), reported in terms of specific binding (%).

[4] = target: T4, human chemokine CCR5 receptor (Homo sapiens, UniProt P51681); experiment: CCR5 assay ([125I]MIP-1β binding); details: 2 h; screened at 10 μM; Panlabs; read-out: CCR5 specific binding (%)
T4 construct: host or cells: CHO-K1-p242-CCR5 cells
Experimental: This assay measures the binding of [^125I]MIP-1β to human chemokine CCR5 receptors. See Samson, M., et al., J. Biol. Chem. 272:24934–24941, 1997. In brief, CHO-K1-p242-CCR5 cells stably transfected with a plasmid encoding the human chemokine CCR5 receptor were used to prepare membranes in modified HEPES buffer at pH 7.4 using standard techniques. A 1 μg aliquot was incubated with 0.1 nM [^125I]MIP-1β for 120 minutes at 25° C. Non-specific binding was estimated in the presence of 0.1 μM MIP-1β. Membranes were filtered and washed 3 times and filters were counted to determine [^125I]MIP-1β specifically bound. Compounds were screened at 10 μM. The data obtained from this assay is reported in Table 6 (row titled “CCR5”), in terms of specific binding (%).

[5] = target: T1, human CXCR1 (IL8RA) chemokine receptor; details: CXCR1 reference data; cited from earlier work
[6] = target: T2, human CXCR2 (IL8RB) chemokine receptor; details: CXCR2 reference data; cited from earlier work

T4 sequence (P51681 whole entry): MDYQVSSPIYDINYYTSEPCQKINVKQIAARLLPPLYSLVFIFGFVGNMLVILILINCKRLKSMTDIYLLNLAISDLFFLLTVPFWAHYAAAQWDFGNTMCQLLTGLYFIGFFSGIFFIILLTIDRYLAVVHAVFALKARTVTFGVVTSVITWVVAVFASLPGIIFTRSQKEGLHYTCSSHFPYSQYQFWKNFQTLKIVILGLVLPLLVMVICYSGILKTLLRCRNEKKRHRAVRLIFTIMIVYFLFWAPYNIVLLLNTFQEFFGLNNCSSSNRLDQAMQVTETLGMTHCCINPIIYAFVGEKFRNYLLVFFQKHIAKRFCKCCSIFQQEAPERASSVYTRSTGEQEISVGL

Row | Molecule | remaining activity at 10 µM [1] [%] | remaining activity at 10 µM [2] [%] | Somat. specific binding (%) (somatostatin receptors) | NPY1 specific binding (%) [3] | remaining activity at 10 µM [4] [%] | IC50 [5] [nM] | IC50 [6] [nM] | Ki [6] | nH [6] | Ki [5] [nM] | nH [5]
1 | O=C(Nc1ccc(F)cc1)c1ccc(Cl)[n+]([O-])c1 [drawing 128] | > 40 | > 40 | * (“*” indicates a value of less than or equal to 40) | * (“*” indicates a value of less than or equal to 40) |  |  |  |  |  |  | 
2 | CS(=O)(=O)c1ccc(C(=O)Nc2ccc(F)cc2)c[n+]1[O-] [drawing 129] | > 40 | > 40 | ** (“**” indicates a value of greater than 40) | ** (“**” indicates a value of greater than 40) | > 40 |  |  |  |  |  | 
3 | O=C(Nc1ccc(F)cc1)c1ccc(S(=O)(=O)c2ccccc2)[n+]([O-])c1 [drawing 130] | > 40 | > 40 | * (“*” indicates a value of less than or equal to 40) | * (“*” indicates a value of less than or equal to 40) | ≤ 40 |  |  |  |  |  | 
4 | CCS(=O)(=O)c1ccc(C(=O)Nc2ccc(F)cc2)c[n+]1[O-] [drawing 131] | ≤ 40 | > 40 | * (“*” indicates a value of less than or equal to 40) | ** (“**” indicates a value of greater than 40) | > 40 |  |  |  |  |  | 
5 | CCCS(=O)(=O)c1ccc(C(=O)Nc2ccc(F)cc2)c[n+]1[O-] [drawing 132] | ≤ 40 | > 40 | * (“*” indicates a value of less than or equal to 40) | ** (“**” indicates a value of greater than 40) | > 40 |  |  |  |  |  | 
6 | O=C(Nc1ccc(F)cc1)c1ccc(S(=O)(=O)Cc2ccccc2)[n+]([O-])c1 [drawing 133] | ≤ 40 | > 40 | * (“*” indicates a value of less than or equal to 40) | * (“*” indicates a value of less than or equal to 40) | ≤ 40 |  |  |  |  |  | 
7 | O=C(Nc1ccc(F)cc1)c1ccc(S(=O)(=O)C2CCCC2)[n+]([O-])c1 [drawing 134] | ≤ 40 | > 40 | * (“*” indicates a value of less than or equal to 40) | * (“*” indicates a value of less than or equal to 40) | > 40 |  |  |  |  |  | 
8 | O=C(Nc1ccc(F)c(F)c1)c1ccc(Cl)[n+]([O-])c1 [drawing 135] | ≤ 40 | > 40 |  |  | ≤ 40 |  |  |  |  |  | 
9 | O=C(Nc1ccc(F)cc1)c1cc(Cl)c(Cl)[n+]([O-])c1 [drawing 136] | > 40 | > 40 | * (“*” indicates a value of less than or equal to 40) |  | ≤ 40 |  |  |  |  |  | 
10 | GROα (or MGSA): Growth Regulatory Oncogene α; Melanoma Growth Stimulatory Activity; CXC chemokine |  |  |  |  |  | > 10000 | 0.098 | 0.098 nM and 0.068 nM | 0.9 |  | 
11 | Interleukin-8: CXC chemokine; standard reference agent used in CXCR1 and CXCR2 binding assays |  |  |  |  |  | 0.035 | 0.035 | 0.024 nM | 0.7 | 0.007 | 1.0
12 | B1 |  |  |  |  |  | > 10000 | 3.1 | 2.2 nM | 0.6 |  | 
